Assay results as given in ChEMBL document CHEMBL4354878, “Structure-Based Bioisosterism Yields HIV-1 NNRTIs with Improved Drug-Resistance Profiles and Favorable Pharmacokinetic Properties” (J Med Chem, 2020).
≈ marks a conversion by molar mass, not a printed value.

Columns and labels:
[1] = molecular target: Human immunodeficiency virus type 1 reverse transcriptase (Human immunodeficiency virus 1, UniProt Q72547, L100I); assay: Inhibition of HIV1 RT L100I mutant in presence of reconstituted template and viral nucleotides [digoxigenin (DIG)-dUTP, biotin-dUTP and dTTP] incubated for 1 hr by ELISA method
[2] = molecular target: Human immunodeficiency virus type 1 reverse transcriptase (Human immunodeficiency virus 1, UniProt Q72547, Y181C); assay: Inhibition of HIV1 RT Y181C mutant in presence of reconstituted template and viral nucleotides [digoxigenin (DIG)-dUTP, biotin-dUTP and dTTP] incubated for 1 hr by ELISA method
[3] = tested on: Human immunodeficiency virus 1; assay: Antiviral activity against HIV1 3B infected in human MT4 cells grown under 30 passages in presence of 4-[[4-[[4-(4-cyano-2,6-dimethylphenoxy)thieno[3,2-d]pyrimidin-2-yl]amino]-1-piperidyl]methyl]benzenesulfonamide assessed as protection against virus-induced cytopathic effect incubated for 5 days by MTT assay; type: functional, organism-based; conditions: Human immunodeficiency virus 1, 3B, MT4, 120 h
[4] = tested on: Human immunodeficiency virus 1; assay: Antiviral activity against HIV1 3B infected in human MT4 cells grown under 30 passages in presence of 4-[[4-[[4-[4-[2-cyanovinyl]-2,6-dimethylphenoxy]thieno[3,2-d]pyrimidin-2-yl]amino]-1-piperidyl]methyl]benzenesulfonamide assessed as protection against virus-induced cytopathic effect incubated for 5 days by MTT assay; type: functional, organism-based; conditions: Human immunodeficiency virus 1, 3B, MT4, 120 h
[5] = tested on: Human immunodeficiency virus 1; assay: Antiviral activity against HIV1 3B infected in human MT4 cells grown under 30 passages in presence of (E)-4-((4-((4-(4-(2-Cyanovinyl)-2,6-dimethylphenoxy)thieno[2,3- d]pyrimidin-2-yl)amino)piperidin-1-yl)methyl)benzenesulfonamide assessed as protection against virus-induced cytopathic effect incubated for 5 days by MTT assay; type: functional, organism-based; conditions: Human immunodeficiency virus 1, 3B, MT4, 120 h
[6] = molecular target: Human immunodeficiency virus type 1 reverse transcriptase (Human immunodeficiency virus 1, UniProt Q72547, K103N); assay: Inhibition of HIV1 RT K103N mutant in presence of reconstituted template and viral nucleotides [digoxigenin (DIG)-dUTP, biotin-dUTP and dTTP] incubated for 1 hr by ELISA method
[7] = molecular target: Human immunodeficiency virus type 1 reverse transcriptase (Human immunodeficiency virus 1, UniProt Q72547, E138K); assay: Inhibition of HIV1 RT E138K mutant in presence of reconstituted template and viral nucleotides [digoxigenin (DIG)-dUTP, biotin-dUTP and dTTP] incubated for 1 hr by ELISA method
[8] = molecular target: Human immunodeficiency virus type 1 reverse transcriptase (Human immunodeficiency virus 1, UniProt Q72547); assay: Inhibition of HIV1 RT in presence of reconstituted template and viral nucleotides [digoxigenin (DIG)-dUTP, biotin-dUTP and dTTP] incubated for 1 hr by ELISA method
[9] = tested on: Human immunodeficiency virus 1; assay: Antiviral activity against HIV1 3B infected in human MT4 cells grown under 30 passages in absence of test compound assessed as protection against virus-induced cytopathic effect incubated for 5 days by MTT assay; type: functional, organism-based; conditions: Human immunodeficiency virus 1, 3B, MT4, 120 h
[10] = molecular target: Human immunodeficiency virus type 1 reverse transcriptase (Human immunodeficiency virus 1, UniProt Q72547, K103N/Y181C); assay: Inhibition of HIV1 RT K103N/Y181C mutant in presence of reconstituted template and viral nucleotides [digoxigenin (DIG)-dUTP, biotin-dUTP and dTTP] incubated for 1 hr by ELISA method
[11] = molecular target: Human immunodeficiency virus type 1 reverse transcriptase (Human immunodeficiency virus 1, UniProt Q72547, Y188L); assay: Inhibition of HIV1 RT Y188L mutant in presence of reconstituted template and viral nucleotides [digoxigenin (DIG)-dUTP, biotin-dUTP and dTTP] incubated for 1 hr by ELISA method
MT4 = assay: Cytotoxicity against human MT4 cells assessed as reduction in cell viability incubated for 5 days by MTT assay; type: functional; conditions: MT4, 120 h
[12] = tested on: Human immunodeficiency virus 1; assay: Antiviral activity against HIV1 RES056 infected in human MT4 cells assessed as protection against virus-induced cytopathic effect incubated for 5 days by MTT assay; type: functional, organism-based; conditions: Human immunodeficiency virus 1, RES056, MT4, 120 h
[13] = tested on: Human immunodeficiency virus 1; assay: Antiviral activity against HIV1 expressing RT Y188L mutant infected in human MT4 cells assessed as protection against virus-induced cytopathic effect incubated for 5 days by MTT assay; type: functional, organism-based; conditions: Human immunodeficiency virus 1, MT4, 120 h
[14] = Selectivity index, ratio of CC50 for human MT4 cells to EC50 for antiviral activity against HIV1 3B infected in human MT4 cells
[15] = tested on: Human immunodeficiency virus 1; assay: Antiviral activity against HIV1 3B infected in human MT4 cells assessed as protection against virus-induced cytopathic effect incubated for 5 days by MTT assay; type: functional, organism-based; conditions: Human immunodeficiency virus 1, 3B, MT4, 120 h
[16] = tested on: Human immunodeficiency virus 1; assay: Antiviral activity against HIV1 expressing RT Y181C mutant infected in human MT4 cells assessed as protection against virus-induced cytopathic effect incubated for 5 days by MTT assay; type: functional, organism-based; conditions: Human immunodeficiency virus 1, MT4, 120 h
[17] = tested on: Human immunodeficiency virus 1; assay: Antiviral activity against HIV1 expressing RT K103N mutant infected in human MT4 cells assessed as protection against virus-induced cytopathic effect incubated for 5 days by MTT assay; type: functional, organism-based; conditions: Human immunodeficiency virus 1, MT4, 120 h
[18] = Selectivity index, ratio of CC50 for human MT4 cells to EC50 for antiviral activity against HIV1 RES056 infected in human MT4 cells
[19] = tested on: Human immunodeficiency virus 1; assay: Antiviral activity against HIV1 expressing RT E138K mutant infected in human MT4 cells assessed as protection against virus-induced cytopathic effect incubated for 5 days by MTT assay; type: functional, organism-based; conditions: Human immunodeficiency virus 1, MT4, 120 h
[20] = tested on: Human immunodeficiency virus 1; type: functional, organism-based; conditions: Human immunodeficiency virus 1, MT4, 120 h
[21] = tested on: Human immunodeficiency virus 1; assay: Antiviral activity against HIV1 expressing RT L100I mutant infected in human MT4 cells assessed as protection against virus-induced cytopathic effect incubated for 5 days by MTT assay; type: functional, organism-based; conditions: Human immunodeficiency virus 1, MT4, 120 h
[22] = Solubility of the compound in pH 7.0 buffer by HPLC analysis
[23] = Solubility of the compound in pH 2.0 buffer by HPLC analysis
[24] = Aqueous solubility of the compound in pH 7 buffer; type: physicochemical
[25] = Solubility of the compound in pH 7.4 buffer by HPLC analysis
[26] = tested on: Human immunodeficiency virus 1; assay: Resistance index, ratio of EC50 for antiviral activity against HIV1 3B infected in human MT4 cells grown under 30 passages in presence of (E)-4-((4-((4-(4-(2-Cyanovinyl)-2,6-dimethylphenoxy)thieno[2,3- d]pyrimidin-2-yl)amino)piperidin-1-yl)methyl)benzenesulfonamide to EC50 for antiviral activity against HIV1 3B infected in human MT4 cells; type: functional
[27] = tested on: Human immunodeficiency virus 1; assay: Resistance index, ratio of EC50 for antiviral activity against HIV1 3B infected in human MT4 cells grown under 30 passages in presence of 4-[[4-[[4-[4-[2-cyanovinyl]-2,6-dimethylphenoxy]thieno[3,2-d]pyrimidin-2-yl]amino]-1-piperidyl]methyl]benzenesulfonamide to EC50 for antiviral activity against HIV1 3B infected in human MT4 cells; type: functional
[28] = tested on: Human immunodeficiency virus 1; assay: Resistance index, ratio of EC50 for antiviral activity against HIV1 3B infected in human MT4 cells grown under 30 passages in presence of 4-[[4-[[4-(4-cyano-2,6-dimethylphenoxy)thieno[3,2-d]pyrimidin-2-yl]amino]-1-piperidyl]methyl]benzenesulfonamide to EC50 for antiviral activity against HIV1 3B infected in human MT4 cells; type: functional

Structure (SMILES)	EC50 [3] [µM]	EC50 [4] [µM]	EC50 [5] [µM]	EC50 [9] [µM]	CC50 (MT4) [µM]	EC50 [12] [µM]	EC50 [13] [µM]	selectivity ratio [14]	EC50 [15] [µM]	EC50 [16] [µM]	EC50 [17] [µM]	selectivity ratio [18]	EC50 [19] [µM]	EC50 [20] [µM]	EC50 [21] [µM]	further results
Cc1cc(C#N)cc(C)c1Oc1nc(NC2CCN(Cc3ccc(S(N)(=O)=O)cc3)CC2)nc2ccsc12	> 36.4	> 36.4	> 36.4	0.0011	–	–	–	–	–	–	–	–	–	–	–	IC50 [1]: 0.092 µM; IC50 [2]: 0.126 µM; IC50 [6]: 0.162 µM; IC50 [7]: 0.2 µM; IC50 [8]: 0.076 µM; IC50 [10]: 0.071 µM; IC50 [11]: 0.215 µM
Cc1cc(/C=C/C#N)cc(C)c1Oc1nc(NC2CCN(Cc3ccc(S(N)(=O)=O)cc3)CC2)nc2ccsc12	0.86	1.22	> 5.53	–	–	–	–	–	–	–	–	–	–	–	–	IC50 [1]: 0.099 µM; IC50 [2]: 0.149 µM; IC50 [6]: 0.191 µM; IC50 [7]: 0.35 µM; IC50 [8]: 0.101 µM; IC50 [10]: 0.107 µM; IC50 [11]: 0.301 µM
Cc1cc(/C=C/C#N)cc(C)c1Oc1nc(NC2CCN(Cc3ccc(F)cc3)CC2)nc2sccc12	–	–	–	–	5.84	0.15	0.152	279	0.0197	0.0363	0.0226	39	0.123	0.127	0.0304	–
Cc1cc(/C=C/C#N)cc(C)c1Oc1nc(NC2CCN(Cc3ccc(C(N)=O)cc3)CC2)nc2sccc12	–	–	–	–	3.54	0.0669	0.0271	597	0.00592	0.0128	0.00499	53	0.00924	0.0151	0.00611	–
CCOC(=O)c1ccc(CN2CCC(Nc3nc(Oc4c(C)cc(/C=C/C#N)cc4C)c4ccsc4n3)CC2)cc1	–	–	–	–	111	0.153	0.12	10500	0.0106	0.0309	0.012	728	0.0331	0.0321	0.0194	–
Cc1cc(/C=C/C#N)cc(C)c1Oc1nc(NC2CCN(Cc3ccc(C#N)cc3)CC2)nc2sccc12	–	–	–	–	7.74	0.138	0.117	625	0.0124	0.0328	0.0173	56	0.0363	0.0326	0.0213	–
Cc1cc(/C=C/C#N)cc(C)c1Oc1nc(NC2CCN(Cc3cccc(C(N)=O)c3)CC2)nc2sccc12	–	–	–	–	3.95	0.062	0.0395	689	0.00573	0.0177	0.00545	64	0.0184	0.0122	0.00575	–
Cc1cc(C#N)cc(C)c1Oc1nc(Nc2ccc(C#N)cc2)nc(N)c1Br [ETRAVIRINE]	0.53	0.37	1.24	–	–	–	0.0205	–	–	0.0157	0.00235	–	–	–	0.00538	solubility [22]: < 1 µg/mL; solubility [23]: 127 µg/mL (≈ 292 µM); solubility [24]: < 1 µg/mL; solubility [25]: < 1 µg/mL
Cc1ccnc2c1NC(=O)c1cccnc1N2C1CC1 [NEVIRAPINE]	> 9.51	> 9.51	3.76	0.0879	–	–	–	–	–	–	–	–	–	–	–	Ratio EC50 [26]: 43; Ratio EC50 [27]: >108; Ratio EC50 [28]: >108
Cc1cc(/C=C/C#N)cc(C)c1Nc1ccnc(Nc2ccc(C#N)cc2)n1 [RILPIVIRINE]	0.09	0.06	> 3.87	–	–	–	–	–	–	–	–	–	–	–	–	solubility [22]: < 1 µg/mL; solubility [23]: 103 µg/mL (≈ 281 µM); solubility [25]: < 1 µg/mL
C[C@H](Cn1cnc2c(N)ncnc21)OCP(=O)(O)O [TENOFOVIR ANHYDROUS]	3.76	3.31	2.17	4.14	–	–	–	–	–	–	–	–	–	–	–	Ratio EC50 [26]: 0.5; Ratio EC50 [27]: 0.8; Ratio EC50 [28]: 0.9
Cc1cn([C@H]2C[C@H](N=[N+]=[N-])[C@@H](CO)O2)c(=O)[nH]c1=O [ZIDOVUDINE]	0.0051	0.0049	0.001	0.0127	–	–	–	–	–	–	–	–	–	–	–	Ratio EC50 [26]: 0.1; Ratio EC50 [27]: 0.4; Ratio EC50 [28]: 0.4
